One data set relates to E0771 cells. Put plainly: Boyden chamber assay. It is filed as cell-based, mouse. The following applies: 20 hours. The protocol:
The apical chamber of 24-well cell culture inserts (Merck Millipore, Billerica, Mass., USA) were seeded with previously starved sh137, sh413 or shControl transduced E0771 cells (150,000) in serum-free medium. Culture medium containing 30% FBS was added to the basal chamber of the unit and cells were allowed to migrate through the membranous barrier for 20 hours at 37° C. Non-migrated cells were washed off, migrated cells were fixed with 4% PFA for 5 minutes, washed twice with 1×PBS, permeabilized with 100% methanol for 25 minutes, labeled with Giemsa stain (for 15 minutes at room temperature) and imaged using a Nikon Eclipse Ti microscope adjusted with an X-cite series 120 LED fluorescence microscope light source and a Nikon digital sight camera. Images were processed using Image J software. Cells from five different fields were counted and averaged.

The next data set relates to mammary cancer cells. Put plainly: Transformation assay (soft agar colony formation). It is filed as cell-based, mouse. The following applies: compared to shControl. Here is the method: Agar was mixed in Roswell Park Memorial Institute medium (RPMI) with 20% FBS. A total of 500 μl of 0.5% agar was added to 24-well plate and allowed to solidify. Cells were plated at 1,250 cells/well in 500 μl of 0.35% agarose. Some 250 μl of the appropriate growth medium was added on top of the agarose layer. Growth medium was replaced twice a week. Colonies were stained with crystal violet and imaged. Colonies from five different fields were counted and averaged.

In data set [1] the test system is 4T1 cells. Put plainly: Tail vein injection of 4T1 cells, lung metastasis. It is filed as in vivo, BALB/c mice. The protocol: Metastatic tumors were generated by implanting 300,000 4T1 shControl, sh413 or sh413 WT cells in 100 μl of PBS via tail vein in five-week-old female mice. Prior to imaging, mice were anesthetized, weighed and injected intraperitoneally with D-luciferin. Mice were imaged using the Xenogen IVIS three-dimensional optical imaging system (Caliper Life Sciences). Moreover, lung metastatic tumors were imaged post-mortem and counted grossly. Moreover, spleens from shControl, sh413, or sh413 WT injected mice were isolated and weighted. Average splenic weight was calculated from 3 different mice and plotted in a bar graph. Finally, Kaplan-Meier survival plots were generated and analyzed using the Gehan-Breslow-Wilcoxon test (GraphPrism) (FIG. 44).
Protein from lungs of mice injected with 4T1 shControl, sh413, or sh413 WT cells via tail vein was isolated to perform western blots blotting for total levels of BIM, levels of activated Caspase-3 (Cleaved Caspase-3) and GAPDH. Bands from 3 different western blots were normalized to GAPDH, quantified, averaged and depicted as bar graphs (FIG. 45).

The next data set concerns E0771 or 4T1 cells. Description: Cell invasion assay (Matrigel). Format: cell-based, mouse. To be noted: 24 h. Here is the method: The apical chamber of 24-well cell culture inserts (Merck Millipore) were coated with 3 mg/ml of Matrigel (100 μl) (Sigma-Aldrich) and allowed to solidify for 5 hours. A total of 100,000 sh413- or shControl-transduced E0771 or 4T1 cells in serum-free medium were plated on top of the Matrigel layer. Culture medium containing 10% FBS and 5 μg/ml fibronectin (adhesive substrate) (Sigma-Aldrich) was added to the basal chamber of the unit (600 μl) and cells were allowed to invade through the membranous barrier for 24 hours at 37° C. Noninvasive cells were washed off; invasive cells were fixed with 4% PFA, permeabilized with 100% methanol, labeled with Giemsa stain and imaged as described in the previous paragraph. Images were processed using Image J software. Cells from five different fields were counted and averaged.

Data set [2] has as its system 4T1 cells. Description: Anoikis assay (Poly-HEMA). Format: cell-based, mouse. To be noted: 48 hours. Here is the method: 96-well plates were coated with 50 ul of sterile 95% Ethanol or 50 ul of 12 mg/ml Poly-HEMA in 95% Ethanol (Sigma-Aldrich) and allowed to dry for 72 hours under the hood as previously described. (See Phung et al. (2011) Rapid generation of in vitro multicellular spheroids for the study of monoclonal antibody therapy. J Cancer 2: 507-514). Poly-HEMA prevents cells from attaching to the plastic. Following, 4T1 shControl, sh413, sh413 WT, or sh413 C3A cells were plated at 20,000 cells/well. Plates were centrifuged at 1,200 g for 10 minutes and then incubated at 37° C. for 48 hours. Cells were collected to test cell viability using trypan blue (Life technologies) and an MTT assay (Life technologies). The rest of the cells were pelleted and kept at −20° C. until used for RNA and protein isolation.

For another data set, the system named is E0771 and 4T1 cells. Put plainly: BrdU assay. It is filed as cell-based, mouse. The protocol: A total of 5,000 cells were plated in 96-well plates for 24 hours. Bromodeoxyuridine or 5-bromo-2′-deoxyuridine (BrdU) (Calbiochem, Billerica, Mass., USA) assay was carried out according to the manufacturer's instructions. Absorbance at 450 nm was read using a Tecan Infinite plate reader. In parallel, 150,000 cells were plated in 24-well plates for 24 hours. Cells were incubated with BrdU label (1:2000) for 20 hours, treated with a fixative/denaturing solution (30 minutes) and incubated with an anti-BrdU antibody (1:1000) and rat anti-mouse BST-2 antibody (1:200, eBioscience) for 1 hour at room temperature. Cells were washed and incubated with Alexa Fluor 594 anti-rat (Invitrogen, Waltham, Mass., USA) and Alexa Fluor 488 anti-mouse (Invitrogen) secondary antibodies for 30 minutes at room temperature. Cells were stained with 4′,6-diamidino-2-phenylindole (DAPI)-containing Vectashield (Vector Laboratories, Burlingame, Calif., USA) and imaged using a Zeiss 710 confocal microscope (Carl Zeiss, Oberkochen, Germany). Images were processed using Image J software. BrdU label, fixative/denaturing solution, and anti-BrdU antibody were from BrdU (Calbiochem) assay.

Regarding “sh413: BST-2-targeting shRNA (SEQ ID NO:4), delivered by lentiviral particles (CCGGGCTTGAGAATGAAGTCACGAACTCGAGTTCGTGACTTCATTCTCAAGCTTTTTG)”, the “rate of cell migration (Boyden chamber)” value in the data set on E0771 cells is on record as “significantly reduced rate of cell migration”. Further, in the data set on mammary cancer cells, the “colony numbers in soft agar” value is reported as “reduced colony numbers”. The “levels of pro-apoptotic factors (BIM, Caspase-3) in the lungs” value in the data set on 4T1 cells [1] (tail vein injected mice) is listed as “elevates levels of pro-apoptotic factors”. For the same substance, in the data set with 4T1 cells [1] (tail vein, 42 days), the lung metastasis result is on record as “decreases lung metastasis in vivo”. In addition, the “invasion through Matrigel” value with E0771 or 4T1 cells is “reduced the ability of the cells to invade the basement membrane”. Also, the susceptibility to anoikis entry in the data set on 4T1 cells [2] was “renders cells susceptible to anoikis”. For the same substance, in the data set with E0771 and 4T1 cells, the “cell proliferation (BrdU incorporation)” value was “no effect on cell proliferation”.

For the origin of these results see patent US20180200331A1, “BST-2 AS A THERAPEUTIC TARGET AND DIAGNOSTIC MARKER FOR BREAST CANCER GROWTH AND METASTASIS” (University of Iowa Research Foundation, priority 2015, published 2018).
